The values below come from US10780090B2, “Heteroaryl compounds useful as inhibitors of SUMO activating enzyme” (Millennium Pharmaceuticals, Inc., priority 2014, dated 2020).

The structures appear in SMILES notation.

This test deals with recombinant human SAE enzyme (Homo sapiens (Human), UniProt Q9UBT2). Briefly: SAE HTRF enzyme assay. The test is classed as biochemical. To be noted: for inhibition at 0.111 µM: read-out: Percent Inhibition. The method in brief: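 HTRF read-out using Eu-cryptate anti-Flag and allophycocyanin anti-GST antibodies, added with EDTA stop buffer and read after 2 h at 24 °C. The preceding reaction ran 105 min at 24 °C: 0.11 nM recombinant SAE, 0.5 μM ATP, Sumo-Flag, Ubc9-GST, pH 7.5. Values given as single-concentration inhibition or IC50.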
recombinant human SAE enzyme, sequence (Q9UBT2 whole entry): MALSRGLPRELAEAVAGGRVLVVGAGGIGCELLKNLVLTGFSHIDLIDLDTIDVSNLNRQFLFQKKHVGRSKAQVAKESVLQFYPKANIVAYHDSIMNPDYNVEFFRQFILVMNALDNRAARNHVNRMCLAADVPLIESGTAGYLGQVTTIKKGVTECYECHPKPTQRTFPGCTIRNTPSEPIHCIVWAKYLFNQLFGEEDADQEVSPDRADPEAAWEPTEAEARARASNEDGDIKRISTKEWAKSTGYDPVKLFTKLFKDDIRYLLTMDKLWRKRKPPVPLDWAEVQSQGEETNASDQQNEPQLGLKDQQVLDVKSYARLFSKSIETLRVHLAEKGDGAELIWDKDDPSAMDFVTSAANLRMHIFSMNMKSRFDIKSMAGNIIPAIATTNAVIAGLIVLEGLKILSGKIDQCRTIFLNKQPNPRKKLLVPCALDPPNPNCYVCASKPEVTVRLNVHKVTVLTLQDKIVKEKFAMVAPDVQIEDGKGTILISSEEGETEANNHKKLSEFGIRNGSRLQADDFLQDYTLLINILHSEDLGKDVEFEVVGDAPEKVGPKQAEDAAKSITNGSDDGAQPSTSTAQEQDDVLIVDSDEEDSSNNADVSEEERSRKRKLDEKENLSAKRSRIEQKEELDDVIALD
recombinant human SAE enzyme, sequence (Q9UBE0 whole entry partner): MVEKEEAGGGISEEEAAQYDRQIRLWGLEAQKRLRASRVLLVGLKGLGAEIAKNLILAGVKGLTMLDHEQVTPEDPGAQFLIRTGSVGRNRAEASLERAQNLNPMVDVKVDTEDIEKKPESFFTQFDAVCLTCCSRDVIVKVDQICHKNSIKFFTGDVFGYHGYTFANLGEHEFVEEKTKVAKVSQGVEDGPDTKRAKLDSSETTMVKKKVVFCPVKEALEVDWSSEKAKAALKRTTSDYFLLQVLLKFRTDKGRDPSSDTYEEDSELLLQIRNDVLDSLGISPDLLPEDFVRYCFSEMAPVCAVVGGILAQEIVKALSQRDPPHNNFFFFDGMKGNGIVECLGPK
Background: In TR-FRET formats the signal depends on donor and acceptor labels being close together.

[1] abbreviates: SAE inhibition at compound concentration 0.111 μM.
Where [2] appears, read: SAE inhibition, class symbols, legend in nM.

As for `NS(=O)(=O)OC[C@H]1C[C@@H](Nc2ncncc2C(=O)c2ccc(Cc3ccccc3)o2)[C@H](O)[C@@H]1O` [I-87, [(1R,2R,3S,4R)-4-{[5-(5-benzyl-2-furoyl)pyrimidin-4-yl]amino}-2,3-dihydroxycyclopentyl]methyl sulfamate], where the note is “Concentration 0.111 μM”, the inhibition – broadly, the share of the control response that was lost under treatment – at 0.111 µM is 94%.

`NS(=O)(=O)OC[C@H]1C[C@@H](Nc2ncncc2C(=O)c2cc([C@@H]3OCC(=O)c4ccccc43)cs2)C[C@@H]1O` (mixture of isomers) [I-342, [(1R,2S,4R)-2-hydroxy-4-{[5-({4-[(1R)-4-oxo-3,4-dihydro-1H-isochromen-1-yl]-2-thienyl}carbonyl)pyrimidin-4-yl]amino}cyclopentyl]methyl sulfamate and [(1R,2S,4R)-2-hydroxy-4-{[5-({4-[(1S)-4-oxo-3,4-dihydro-1H-isochromen-1-yl]-2-thienyl}carbonyl)pyrimidin-4-yl]amino}cyclopentyl]methyl sulfamate]: under setting [1], the “Percent Inhibition” value was determined as 93%. Also, the IC50 – broadly, the concentration needed to halve the response being measured – under setting [2] is below 10 nM.

Regarding `N#Cc1cccc(Cc2csc(C(=O)c3cncnc3N[C@@H]3C[C@H](COS(N)(=O)=O)[C@@H](O)C3)c2)c1` [I-185, {(1R,2S,4R)-4-[(5-{[4-(3-cyanobenzyl)-2-thienyl]carbonyl}pyrimidin-4-yl)amino]-2-hydroxycyclopentyl}methyl sulfamate], the inhibition at 0.111 µM (Concentration 0.111 μM) was 80%. Also, the concentration for half-maximal inhibition (IC50) (class symbols A/B/C) lay in the range of 10 to 100 nM.

For `NS(=O)(=O)OC[C@H]1C[C@@H](Nc2ncncc2C(=O)c2cc(Cn3cc(C(F)(F)F)cn3)cs2)C[C@@H]1O` [I-130, [(1R,2S,4R)-2-hydroxy-4-({5-[(4-{[4-(trifluoromethyl)-1H-pyrazol-1-yl]methyl}-2-thienyl)carbonyl]pyrimidin-4-yl}amino)cyclopentyl]methyl sulfamate], the inhibition at 0.111 µM (Concentration 0.111 μM) came out at 97%. Also, the IC50 (class symbols A/B/C) is below 10 nM.

As to `Cc1sc(C(=O)c2cncnc2N[C@@H]2C[C@H](COS(N)(=O)=O)[C@@H](O)C2)cc1[C@H]1OCCc2ccc(N3CCCC3)nc21` (mixture of isomers) [I-348, [(1R,2S,4R)-2-hydroxy-4-{[5-({5-methyl-4-[(8R)-2-(pyrrolidin-1-yl)-5,8-dihydro-6H-pyrano[3,4-b]pyridin-8-yl]-2-thienyl}carbonyl)pyrimidin-4-yl]amino}cyclopentyl]methyl sulfamate and [(1R,2S,4R)-2-hydroxy-4-{[5-({5-methyl-4-[(8S)-2-(pyrrolidin-1-yl)-5,8-dihydro-6H-pyrano[3,4-b]pyridin-8-yl]-2-thienyl}carbonyl)pyrimidin-4-yl]amino}cyclopentyl]methyl sulfamate], under setting [1], the “Percent Inhibition” value is 97%. Moreover, the IC50 under setting [2] is below 10 nM.

Turning to `NS(=O)(=O)OC[C@H]1C[C@@H](Nc2ncncc2C(=O)c2cc(CN3CCc4ccccc4C3)cs2)C[C@@H]1O` [I-167, {(1R,2S,4R)-4-[(5-{[4-(3,4-dihydroisoquinolin-2(1H)-ylmethyl)-2-thienyl]carbonyl}pyrimidin-4-yl)amino]-2-hydroxycyclopentyl}methyl sulfamate], the inhibition at 0.111 µM (Concentration 0.111 μM) worked out at 89%. Further, the IC50 (class symbols A/B/C) was in the range of 10 to 100 nM.

Take `NS(=O)(=O)OCC1CC(Nc2ncncc2C(=O)c2cc(C(O)c3cc(Br)ccc3F)cs2)CC1O` (mixture of isomers) [I-19, [(1R,2S,4R)-4-{[5-({4-[(R)-(5-bromo-2-fluorophenyl)(hydroxy)methyl]-2-thienyl}carbonyl)pyrimidin-4-yl]amino}-2-hydroxycyclopentyl]methyl sulfamate and [(1R,2S,4R)-4-{[5-({4-[(S)-(5-bromo-2-fluorophenyl)(hydroxy)methyl]-2-thienyl}carbonyl)pyrimidin-4-yl]amino}-2-hydroxycyclopentyl]methyl sulfamate]: the “Percent Inhibition” value (Concentration 0.111 μM) is 100. For the same compound, the IC50 (class symbols A/B/C) is below 10 nM.

For the compound `CC(C)(O)c1ccc(C(=O)c2cncnc2N[C@@H]2C[C@H](COS(N)(=O)=O)[C@@H](O)[C@H]2O)s1` [I-202, {(1R,2R,3S,4R)-2,3-dihydroxy-4-[(5-{[5-(2-hydroxypropan-2-yl)-2-thienyl]carbonyl}pyrimidin-4-yl)amino]cyclopentyl}methyl sulfamate], the inhibition at 0.111 µM (Concentration 0.111 μM) turned out to be 60%. The IC50 (class symbols A/B/C) lay in the range of 10 to 100 nM.

In the case of `CCc1cccc(Cc2cc(C(=O)c3cncnc3N[C@@H]3C[C@H](COS(N)(=O)=O)[C@@H](O)C3)sc2C)c1` [I-111, {(1R,2S,4R)-4-[(5-{[4-(3-ethylbenzyl)-5-methyl-2-thienyl]carbonyl}pyrimidin-4-yl)amino]-2-hydroxycyclopentyl}methyl sulfamate], where the note is “Concentration 0.111 μM”, the inhibition at 0.111 µM stood at 98%. In addition, the IC50 (class symbols A/B/C) is below 10 nM.

Turning to `NS(=O)(=O)OC[C@H]1C[C@@H](Nc2ncncc2C(=O)c2cc([C@@H]3OCC(F)(F)c4ccccc43)cs2)C[C@@H]1O` (single isomer, unassigned) [I-293b, [(1R,2S,4R)-4-{[5-({4-[(1R)-4,4-difluoro-3,4-dihydro-1H-isochromen-1-yl]-2-thienyl}carbonyl)pyrimidin-4-yl]amino}-2-hydroxycyclopentyl]methyl sulfamate or [(1R,2S,4R)-4-{[5-({4-[(1S)-4,4-difluoro-3,4-dihydro-1H-isochromen-1-yl]-2-thienyl}carbonyl)pyrimidin-4-yl]amino}-2-hydroxycyclopentyl]methyl sulfamate], the “Percent Inhibition” value under setting [1] is reported as 98%. Further, under setting [2], the IC50 is below 10 nM.

Take `Cc1sc(C(=O)c2cncnc2N[C@@H]2C[C@H](COS(N)(=O)=O)[C@@H](O)C2)cc1[C@@H]1OCCc2ccc(C3CC3)cc21` (mixture of isomers) [I-277, [(1R,2S,4R)-4-{[5-({4-[(1R)-7-cyclopropyl-3,4-dihydro-1H-isochromen-1-yl]-5-methyl-2-thienyl}carbonyl)pyrimidin-4-yl]amino}-2-hydroxycyclopentyl]methyl sulfamate and [(1R,2S,4R)-4-{[5-({4-[(1S)-7-cyclopropyl-3,4-dihydro-1H-isochromen-1-yl]-5-methyl-2-thienyl}carbonyl)pyrimidin-4-yl]amino}-2-hydroxycyclopentyl]methyl sulfamate]: for the setting “Concentration 0.111 μM”, the “Percent Inhibition” value is on record as 99. For the setting “class symbols A/B/C”, the IC50 is below 10 nM.

In the case of `Cc1cc(Cc2cccc(Cl)c2)sc1C(=O)c1cncnc1N[C@@H]1C[C@H](COS(N)(=O)=O)[C@@H](O)C1` [I-233, {(1R,2S,4R)-4-[(5-{[5-(3-Chlorobenzyl)-3-methyl-2-thienyl]carbonyl}pyrimidin-4-yl)amino]-2-hydroxycyclopentyl}methyl sulfamate], the inhibition at 0.111 µM (Concentration 0.111 μM) is 22%. Also, the IC50 (class symbols A/B/C) lay in the range of 100 to 1000 nM.

For `Cc1sc(C(=O)c2cncnc2N[C@@H]2C[C@H](COS(N)(=O)=O)[C@@H](O)C2)cc1[C@@H]1OCCc2ccc(Cl)c(F)c21` (mixture of isomers) [I-303, [(1R,2S,4R)-4-{[5-({4-[(1R)-7-chloro-8-fluoro-3,4-dihydro-1H-isochromen-1-yl]-5-methyl-2-thienyl}carbonyl)pyrimidin-4-yl]amino}-2-hydroxycyclopentyl]methyl sulfamate and [(1R,2S,4R)-4-{[5-({4-[(1S)-7-chloro-8-fluoro-3,4-dihydro-1H-isochromen-1-yl]-5-methyl-2-thienyl}carbonyl)pyrimidin-4-yl]amino}-2-hydroxycyclopentyl]methyl sulfamate], the “Percent Inhibition” value under setting [1] worked out at 99%. Moreover, under setting [2], the IC50 was below 10 nM.

Take `Cc1sc(C(=O)c2cncnc2N[C@@H]2C[C@H](COS(N)(=O)=O)[C@@H](O)C2)cc1Cn1cc(I)cn1` [I-37, [(1R,2S,4R)-2-hydroxy-4-{[5-({4-[(4-iodo-1H-pyrazol-1-yl)methyl]-5-methyl-2-thienyl}carbonyl)pyrimidin-4-yl]amino}cyclopentyl]methyl sulfamate]: the inhibition at 0.111 µM (Concentration 0.111 μM) was 98%.

As to `NS(=O)(=O)OC[C@H]1C[C@@H](Nc2ncncc2C(=O)c2cc([C@@H]3CCCc4ccc(Cl)cc43)cs2)C[C@@H]1O` (single isomer, unassigned) [I-335a, [(1R,2S,4R)-4-{[5-({4-[(1R)-7-chloro-1,2,3,4-tetrahydronaphthalen-1-yl]-2-thienyl}carbonyl)pyrimidin-4-yl]amino}-2-hydroxycyclopentyl]methyl sulfamate or [(1R,2S,4R)-4-{[5-({4-[(1S)-7-chloro-1,2,3,4-tetrahydronaphthalen-1-yl]-2-thienyl}carbonyl)pyrimidin-4-yl]amino}-2-hydroxycyclopentyl]methyl sulfamate], the “Percent Inhibition” value under setting [1] stood at 14%. Further, the IC50 under setting [2] lay in the range of 100 to 1000 nM.

As for `NC(c1cccc(Cl)c1)c1cc(C(=O)c2cncnc2NC2CC(O)C(COS(N)(=O)=O)C2)sc1Cl` (mixture of isomers) [I-15, [(1R,2S,4R)-4-{[5-({4-[(R)-amino(3-chlorophenyl)methyl]-5-chloro-2-thienyl}carbonyl)pyrimidin-4-yl]amino}-2-hydroxycyclopentyl]methyl sulfamate and [(1R,2S,4R)-4-{[5-({4-[(S)-amino(3-chlorophenyl)methyl]-5-chloro-2-thienyl}carbonyl)pyrimidin-4-yl]amino}-2-hydroxycyclopentyl]methyl sulfamate], the “Percent Inhibition” value (Concentration 0.111 μM) is recorded as 100. For the same compound, the IC50 (class symbols A/B/C) was below 10 nM.

Regarding `NS(=O)(=O)OC[C@H]1C[C@@H](Nc2ncncc2C(=O)c2cc([C@@H]3OCCc4cccnc43)c(Cl)s2)C[C@@H]1O` (single isomer, unassigned) [I-266a, [(1R,2S,4R)-4-{[5-({5-chloro-4-[(8S)-5,8-dihydro-6H-pyrano[3,4-b]pyridin-8-yl]-2-thienyl}carbonyl)pyrimidin-4-yl]amino}-2-hydroxycyclopentyl]methyl sulfamate or [(1R,2S,4R)-4-{[5-({5-chloro-4-[(8R)-5,8-dihydro-6H-pyrano[3,4-b]pyridin-8-yl]-2-thienyl}carbonyl)pyrimidin-4-yl]amino}-2-hydroxycyclopentyl]methyl sulfamate], the “Percent Inhibition” value (Concentration 0.111 μM) came out at 41. For the setting “class symbols A/B/C”, the IC50 lay in the range of 100 to 1000 nM.
